The results in this text go back to PubChem BioAssay (NCI).

Among the test systems are SK-MEL-2 melanoma; CAKI-1 renal; U251 CNS; BT-549 breast; SNB-75 CNS; OVCAR-3 ovarian; NCI/ADR-RES ovarian; M14 melanoma.
Holding throughout (experiment): DTP human tumour cell line panel, 48 h

Structures are written as SMILES. Values joined by “and” are separate entries in the source; they are usually repeats but may differ in a detail not shown here. Identical values can stand only once.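 In this assay, cells in 96-well plates receive the compound at five concentrations for 48 hours. Endpoints are linearly interpolated between the surrounding concentrations. GI50: concentration for 50% inhibition of growth. The concentration for full growth arrest is given as TGI.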

As a reminder, the GI50 is the concentration that inhibits growth by half. For orientation: TGI means the concentration at which net growth stops. As to `O=C(CCCCCNC1=CC(=O)c2ccccc2C1=O)NCCC[Te]c1ccccc1`, the GI50 in the experiment on SK-MEL-2 melanoma was 2.79 µM; in the experiment with CAKI-1 renal, 1.7 µM; in the experiment on U251 CNS, 0.356 µM; with BT-549 breast it was 0.297 µM; with SNB-75 CNS, 0.29 µM; with OVCAR-3 ovarian it was 0.676 µM. In addition, the GI50 in the experiment on NCI/ADR-RES ovarian was 0.425 µM; in the experiment with M14 melanoma it was 0.473 µM. The TGI in the experiment on SK-MEL-2 melanoma is 6.3 µM; in the experiment on CAKI-1 renal, 3.93 µM; in the experiment with U251 CNS it was 1.87 µM; with BT-549 breast, 0.916 µM; with SNB-75 CNS, 1.48 µM; in the experiment on OVCAR-3 ovarian it was 2.22 µM. The TGI with NCI/ADR-RES ovarian was 4.62 µM; with M14 melanoma, 1.86 µM.

Turning to `O=C(NC1CCNCC1)c1[nH]ncc1NC(=O)c1c(Cl)cccc1Cl`, the GI50 in the experiment with SK-MEL-2 melanoma was 0.216 µM and 0.303 µM; in the experiment with CAKI-1 renal, 14.9 µM and 4.09 µM; in the experiment with U251 CNS, 0.328 µM and 0.329 µM; in the experiment on BT-549 breast, 0.588 µM and 0.471 µM; in the experiment on SNB-75 CNS it was 0.249 µM and 0.218 µM; with OVCAR-3 ovarian, 0.325 µM and 0.386 µM. Further, the GI50 with NCI/ADR-RES ovarian was greater than 100 µM; with M14 melanoma, 1.25 µM and 0.792 µM. Besides, the concentration for total growth inhibition (TGI) with SK-MEL-2 melanoma is 0.519 µM and 1.14 µM; with CAKI-1 renal, greater than 100 µM; with U251 CNS, greater than 59.7 µM; in the experiment on BT-549 breast, 7.89 µM; in the experiment on SNB-75 CNS it was 0.766 µM and 0.674 µM; with OVCAR-3 ovarian, greater than 27.9 µM. In addition, the TGI in the experiment on NCI/ADR-RES ovarian was greater than 100 µM; with M14 melanoma, 7.06 µM and 6.17 µM.

On to `C[C@@H](Oc1cc(-c2cnn(C3CC4(CNC4)C3)c2)cnc1N)c1c(Cl)ccc(F)c1Cl`, for which the GI50 in the experiment on SK-MEL-2 melanoma is 3.58 µM; in the experiment with CAKI-1 renal, 7.58 µM; in the experiment with U251 CNS it was 5.01 µM; with BT-549 breast, 6.49 µM; with SNB-75 CNS, 2.44 µM; in the experiment on OVCAR-3 ovarian it was 9.94 µM. In addition, the GI50 with NCI/ADR-RES ovarian is 14.9 µM; in the experiment with M14 melanoma it was 1.57 µM. In addition, the TGI was found to be 15.1 µM in the experiment with SK-MEL-2 melanoma; 21.4 µM in the experiment with CAKI-1 renal; 19.1 µM with U251 CNS; 19.4 µM in the experiment on BT-549 breast; 9.29 µM in the experiment with SNB-75 CNS; 22.1 µM in the experiment on OVCAR-3 ovarian. Further, the TGI in the experiment with NCI/ADR-RES ovarian stood at 31 µM; in the experiment on M14 melanoma, 3.37 µM.

`O=Cc1c[nH]c2ccc(-c3csc4ccccc34)cc12`: the GI50 with SK-MEL-2 melanoma is 2.65 µM; with CAKI-1 renal it was 1.93 µM; with U251 CNS, 3.64 µM; with BT-549 breast it was 2.5 µM; with SNB-75 CNS it was 1.25 µM; in the experiment with OVCAR-3 ovarian, 2.01 µM. The GI50 was 4.09 µM in the experiment on NCI/ADR-RES ovarian and 3.19 µM in the experiment with M14 melanoma. In addition, the TGI in the experiment with SK-MEL-2 melanoma is greater than 100 µM; in the experiment on CAKI-1 renal, greater than 100 µM; with U251 CNS it was 21 µM; in the experiment with BT-549 breast, 8.75 µM; in the experiment with SNB-75 CNS, 5.88 µM; with OVCAR-3 ovarian it was 5.03 µM. In addition, the TGI in the experiment with NCI/ADR-RES ovarian and with M14 melanoma was greater than 100 µM throughout.

On to `S=C(Nc1ccc(Cl)cc1)SC1CCCCC1`, for which the TGI in the experiment with SK-MEL-2 melanoma is 39.9 µM; with CAKI-1 renal, greater than 100 µM; with U251 CNS, greater than 100 µM; in the experiment with BT-549 breast it was greater than 100 µM; in the experiment with SNB-75 CNS it was 74.4 µM; with OVCAR-3 ovarian it was 56.9 µM. In addition, the TGI in the experiment with NCI/ADR-RES ovarian is greater than 100 µM; in the experiment on M14 melanoma, 42.7 µM.

`COc1cccc(C(C#N)NC23CC4CC(CC(C4)C2)C3)c1` (configuration not stated): the TGI with SK-MEL-2 melanoma, in the experiment on CAKI-1 renal, in the experiment on U251 CNS, in the experiment on BT-549 breast, in the experiment with SNB-75 CNS and in the experiment with OVCAR-3 ovarian was greater than 100 µM in each case. The total growth inhibition concentration (TGI) with NCI/ADR-RES ovarian and in the experiment with M14 melanoma was greater than 100 µM in each case.

`Cc1ccc(C2NC(=S)N3C(c4ccc(C)cc4)NC(=S)N23)cc1` (configuration not stated): the GI50 in the experiment with SK-MEL-2 melanoma is 3.4 µM; with CAKI-1 renal, 2.68 µM; in the experiment with U251 CNS, 3.91 µM; in the experiment with BT-549 breast, 10.3 µM; with SNB-75 CNS it was 2.87 µM; with OVCAR-3 ovarian, 3.26 µM. For the same compound, the GI50 with NCI/ADR-RES ovarian was 2.33 µM; with M14 melanoma, 3.01 µM. Besides, the TGI in the experiment with SK-MEL-2 melanoma amounted to 12.1 µM; in the experiment on CAKI-1 renal, 7.01 µM; with U251 CNS it was 14.3 µM; with BT-549 breast, 23.7 µM; with SNB-75 CNS, 12.1 µM; with OVCAR-3 ovarian it was 11.5 µM. Further, the values for the TGI in the experiment with NCI/ADR-RES ovarian and in the experiment on M14 melanoma were 6.19 µM and 11.2 µM, respectively.

Regarding `NC(Cc1ccc(O)cc1)C(=O)N/N=C/c1ccc(N(CCCl)CCCl)cc1` (configuration not stated), the GI50 with SK-MEL-2 melanoma is 60.6 µM; in the experiment with CAKI-1 renal, 1.83 µM; in the experiment with U251 CNS, 27.8 µM; in the experiment with BT-549 breast, 19.3 µM; with SNB-75 CNS, 12.6 µM; with OVCAR-3 ovarian it was 14.2 µM. Besides, the GI50 with NCI/ADR-RES ovarian was 17.3 µM; in the experiment on M14 melanoma it was 17.5 µM. Moreover, the TGI was greater than 100 µM in the experiment on SK-MEL-2 melanoma; 18.4 µM in the experiment on CAKI-1 renal; greater than 100 µM in the experiment on U251 CNS; greater than 100 µM with BT-549 breast; greater than 100 µM in the experiment on SNB-75 CNS; 62 µM in the experiment with OVCAR-3 ovarian. In addition, the total growth inhibition concentration (TGI) with NCI/ADR-RES ovarian is greater than 100 µM; with M14 melanoma, 81.2 µM.
